{"source": "ChEMBL document CHEMBL4002607", "about": "“Sulfamic and succinic acid derivatives of 25-OH-PPD and their activities to MCF-7, A-549, HCT-116, and BGC-823 cell lines” (Bioorg Med Chem Lett, 2017)", "key": {"BGC-823 [1]": {"system": "BGC-823", "assay": "Antiproliferative activity against human BGC823 cells after 48 hrs by MTT assay", "format": "functional, cell-based", "settings": "BGC-823, 48 h; call rule not given here"}, "MCF7": {"system": "MCF7", "assay": "Antiproliferative activity against human MCF7 cells after 48 hrs by MTT assay", "format": "functional, cell-based", "settings": "MCF7, 48 h"}, "HCT-116": {"system": "HCT-116", "assay": "Antiproliferative activity against human HCT116 cells after 48 hrs by MTT assay", "format": "functional, cell-based"}, "A549 [2]": {"system": "A549", "assay": "Antiproliferative activity against human A549 cells after 48 hrs by MTT assay", "format": "functional, cell-based"}, "BGC-823 [3]": {"system": "BGC-823", "assay": "Antiproliferative activity against human BGC823 cells assessed as cell viability at 40 uM after 48 hrs by MTT assay relative to control", "format": "functional", "settings": "BGC-823, 48 h, read-out: Activity"}, "[4]": {"assay": "Antiproliferative activity against human IOSE-144 cells after 48 hrs by MTT assay", "format": "cell-based", "settings": "IOSE-144, 48 h"}, "A549 [5]": {"system": "A549", "assay": "Antiproliferative activity against human A549 cells assessed as cell viability at 20 uM after 48 hrs by MTT assay relative to control", "format": "functional", "settings": "A549, 48 h, read-out: Activity"}, "[6]": {"settings": "Homo sapiens, HCT-116, 48 h, read-out: IC50"}, "[7]": {"settings": "Homo sapiens, A549, 48 h, read-out: IC50"}}, "data": [{"smiles": "CC(C)(O)CCC[C@@](C)(OS(N)(=O)=O)[C@H]1CC[C@]2(C)[C@@H]1[C@H](O)C[C@@H]1[C@@]3(C)CC[C@H](OS(N)(=O)=O)C(C)(C)[C@@H]3CC[C@]12C", "values": [{"measurement": "IC50", "setting": "BGC-823 [1]", "value": 14.9, "unit": "µM"}, {"measurement": "IC50", "setting": "MCF7", "value": 12.4, "unit": "µM"}, {"measurement": "IC50", "setting": "HCT-116; [6]", "value": 41.5, "unit": "µM"}, {"measurement": "IC50", "setting": "A549 [2]; [7]", "value": 8.8, "unit": "µM"}, {"measurement": "viability at 40 µM", "setting": "BGC-823 [3]", "value": 14.5, "unit": "%"}, {"measurement": "IC50", "setting": "[4]", "value": "> 100", "unit": "µM"}]}, {"smiles": "C=C(CCCC(C)(C)O)[C@H]1CC[C@]2(C)[C@@H]1[C@H](O)C[C@@H]1[C@@]3(C)CC[C@H](O)C(C)(C)[C@@H]3CC[C@]12C", "values": [{"measurement": "IC50", "setting": "BGC-823 [1]", "value": 34.6, "unit": "µM"}, {"measurement": "IC50", "setting": "MCF7", "value": 32.9, "unit": "µM"}, {"measurement": "IC50", "setting": "HCT-116; [6]", "value": "> 100", "unit": "µM"}, {"measurement": "IC50", "setting": "A549 [2]; [7]", "value": 29.2, "unit": "µM"}, {"measurement": "IC50", "setting": "[4]", "value": "> 100", "unit": "µM"}]}, {"smiles": "CC(C)(O)CCC[C@@](C)(O)[C@H]1CC[C@]2(C)[C@@H]1[C@H](OC(=O)CCC(=O)O)C[C@@H]1[C@@]3(C)CC[C@H](OC(=O)CCC(=O)O)C(C)(C)[C@@H]3CC[C@]12C", "values": [{"measurement": "IC50", "setting": "BGC-823 [1]", "value": "> 100", "unit": "µM"}, {"measurement": "IC50", "setting": "MCF7", "value": 40.3, "unit": "µM"}, {"measurement": "IC50", "setting": "HCT-116; [6]", "value": "> 100", "unit": "µM"}, {"measurement": "IC50", "setting": "A549 [2]; [7]", "value": "> 100", "unit": "µM"}, {"measurement": "IC50", "setting": "[4]", "value": "> 100", "unit": "µM"}]}, {"smiles": "C=C(CCCC(C)(C)O)[C@H]1CC[C@]2(C)[C@@H]1[C@H](OS(N)(=O)=O)C[C@@H]1[C@@]3(C)CC[C@H](O)C(C)(C)[C@@H]3CC[C@]12C", "values": [{"measurement": "IC50", "setting": "BGC-823 [1]", "value": "> 100", "unit": "µM"}, {"measurement": "IC50", "setting": "MCF7", "value": 33.8, "unit": "µM"}, {"measurement": "IC50", "setting": "HCT-116; [6]", "value": "> 100", "unit": "µM"}, {"measurement": "IC50", "setting": "A549 [2]; [7]", "value": 20.9, "unit": "µM"}, {"measurement": "IC50", "setting": "[4]", "value": "> 100", "unit": "µM"}]}, {"smiles": "CC(C)(O)CCC[C@@](C)(O)[C@H]1CC[C@]2(C)[C@@H]1[C@H](O)C[C@@H]1[C@@]3(C)CC[C@H](OS(N)(=O)=O)C(C)(C)[C@@H]3CC[C@]12C", "values": [{"measurement": "IC50", "setting": "BGC-823 [1]", "value": 14, "unit": "µM"}, {"measurement": "IC50", "setting": "MCF7", "value": 14.6, "unit": "µM"}, {"measurement": "IC50", "setting": "HCT-116; hct-116", "value": "Not Active"}, {"measurement": "viability at 20 µM", "setting": "A549 [5]", "value": 6, "unit": "%"}, {"measurement": "IC50", "setting": "A549 [2]; [7]", "value": 0.2, "unit": "µM"}, {"measurement": "viability at 40 µM", "setting": "BGC-823 [3]", "value": 40, "unit": "%"}, {"measurement": "IC50", "setting": "[4]", "value": "> 100", "unit": "µM"}]}, {"smiles": "C=C(CCCC(C)(C)OS(N)(=O)=O)[C@H]1CC[C@]2(C)[C@@H]1[C@H](O)C[C@@H]1[C@@]3(C)CC[C@H](O)C(C)(C)[C@@H]3CC[C@]12C", "values": [{"measurement": "IC50", "setting": "BGC-823 [1]", "value": 32, "unit": "µM"}, {"measurement": "IC50", "setting": "MCF7", "value": 20.8, "unit": "µM"}, {"measurement": "IC50", "setting": "HCT-116; hct-116", "value": "Not Active"}, {"measurement": "IC50", "setting": "A549 [2]; [7]", "value": 13.7, "unit": "µM"}, {"measurement": "viability at 40 µM", "setting": "BGC-823 [3]", "value": 39.9, "unit": "%"}, {"measurement": "IC50", "setting": "[4]", "value": "> 100", "unit": "µM"}]}, {"smiles": "O=c1[nH]cc(F)c(=O)[nH]1", "note": "[FLUOROURACIL]", "values": [{"measurement": "IC50", "setting": "BGC-823 [1]", "value": 34.8, "unit": "µM"}, {"measurement": "IC50", "setting": "MCF7", "value": 19.2, "unit": "µM"}, {"measurement": "IC50", "setting": "HCT-116; [6]", "value": 29.2, "unit": "µM"}, {"measurement": "IC50", "setting": "A549 [2]; [7]", "value": 10.5, "unit": "µM"}]}, {"smiles": "CC(C)(O)CCC[C@@](C)(O)[C@H]1CC[C@]2(C)[C@@H]1[C@H](O)C[C@@H]1[C@@]3(C)CC[C@H](O)C(C)(C)[C@@H]3CC[C@]12C", "values": [{"measurement": "IC50", "setting": "BGC-823 [1]", "value": 33.2, "unit": "µM"}, {"measurement": "IC50", "setting": "MCF7", "value": 7.5, "unit": "µM"}, {"measurement": "IC50", "setting": "HCT-116; [6]", "value": 21.5, "unit": "µM"}, {"measurement": "viability at 20 µM", "setting": "A549 [5]", "value": 36.5, "unit": "%"}, {"measurement": "IC50", "setting": "A549 [2]; [7]", "value": 5.9, "unit": "µM"}, {"measurement": "viability at 40 µM", "setting": "BGC-823 [3]", "value": 40.1, "unit": "%"}, {"measurement": "IC50", "setting": "[4]", "value": "> 100", "unit": "µM"}]}, {"smiles": "CC(C)=CCC[C@@](C)(O)[C@H]1CC[C@]2(C)[C@@H]1[C@H](O)C[C@@H]1[C@@]3(C)CC[C@H](OS(N)(=O)=O)C(C)(C)[C@@H]3CC[C@]12C", "values": [{"measurement": "IC50", "setting": "BGC-823 [1]", "value": 22.1, "unit": "µM"}, {"measurement": "IC50", "setting": "MCF7", "value": 14.5, "unit": "µM"}, {"measurement": "IC50", "setting": "HCT-116; [6]", "value": 26.8, "unit": "µM"}, {"measurement": "IC50", "setting": "A549 [2]; [7]", "value": 9.9, "unit": "µM"}, {"measurement": "viability at 40 µM", "setting": "BGC-823 [3]", "value": 17.1, "unit": "%"}, {"measurement": "IC50", "setting": "[4]", "value": "> 100", "unit": "µM"}]}, {"smiles": "CC(C)(O)CCC[C@@](C)(O)[C@H]1CC[C@]2(C)[C@@H]1[C@H](OC(=O)CCC(=O)O)C[C@@H]1[C@@]3(C)CC[C@H](O)C(C)(C)[C@@H]3CC[C@]12C", "values": [{"measurement": "IC50", "setting": "BGC-823 [1]", "value": "> 100", "unit": "µM"}, {"measurement": "IC50", "setting": "MCF7", "value": 77.1, "unit": "µM"}, {"measurement": "IC50", "setting": "HCT-116; [6]", "value": 75.3, "unit": "µM"}, {"measurement": "IC50", "setting": "A549 [2]; [7]", "value": "> 100", "unit": "µM"}, {"measurement": "IC50", "setting": "[4]", "value": "> 100", "unit": "µM"}]}, {"smiles": "C=C(CCCC(C)(C)O)[C@H]1CC[C@]2(C)[C@@H]1[C@H](OS(N)(=O)=O)C[C@@H]1[C@@]3(C)CC[C@H](OS(N)(=O)=O)C(C)(C)[C@@H]3CC[C@]12C", "values": [{"measurement": "IC50", "setting": "BGC-823 [1]", "value": 37.7, "unit": "µM"}, {"measurement": "IC50", "setting": "MCF7", "value": 30.3, "unit": "µM"}, {"measurement": "IC50", "setting": "HCT-116; [6]", "value": "> 100", "unit": "µM"}, {"measurement": "IC50", "setting": "A549 [2]; [7]", "value": 24.1, "unit": "µM"}, {"measurement": "IC50", "setting": "[4]", "value": "> 100", "unit": "µM"}]}, {"smiles": "C=C(CCCC(C)(C)O)[C@H]1CC[C@]2(C)[C@@H]1[C@H](O)C[C@@H]1[C@@]3(C)CC[C@H](OS(N)(=O)=O)C(C)(C)[C@@H]3CC[C@]12C", "values": [{"measurement": "IC50", "setting": "BGC-823 [1]", "value": 21.6, "unit": "µM"}, {"measurement": "IC50", "setting": "MCF7", "value": 11.9, "unit": "µM"}, {"measurement": "IC50", "setting": "HCT-116; [6]", "value": 42.4, "unit": "µM"}, {"measurement": "viability at 20 µM", "setting": "A549 [5]", "value": 9, "unit": "%"}, {"measurement": "IC50", "setting": "A549 [2]; [7]", "value": 0.8, "unit": "µM"}, {"measurement": "viability at 40 µM", "setting": "BGC-823 [3]", "value": 24.7, "unit": "%"}, {"measurement": "IC50", "setting": "[4]", "value": "> 100", "unit": "µM"}]}, {"smiles": "C=C(CCC=C(C)C)[C@H]1CC[C@]2(C)[C@@H]1[C@H](OS(N)(=O)=O)C[C@@H]1[C@@]3(C)CC[C@H](O)C(C)(C)[C@@H]3CC[C@]12C", "values": [{"measurement": "IC50", "setting": "BGC-823 [1]", "value": 25.9, "unit": "µM"}, {"measurement": "IC50", "setting": "MCF7", "value": 13.5, "unit": "µM"}, {"measurement": "IC50", "setting": "HCT-116; hct-116", "value": "Not Active"}, {"measurement": "IC50", "setting": "A549 [2]; a549", "value": "Not Active"}, {"measurement": "viability at 40 µM", "setting": "BGC-823 [3]", "value": 21.2, "unit": "%"}, {"measurement": "IC50", "setting": "[4]", "value": "> 100", "unit": "µM"}]}, {"smiles": "CC(C)=CCC[C@@](C)(O)[C@H]1CC[C@]2(C)[C@@H]1[C@H](OS(N)(=O)=O)C[C@@H]1[C@@]3(C)CC[C@H](O)C(C)(C)[C@@H]3CC[C@]12C", "values": [{"measurement": "IC50", "setting": "BGC-823 [1]", "value": 25.5, "unit": "µM"}, {"measurement": "IC50", "setting": "MCF7", "value": 18.2, "unit": "µM"}, {"measurement": "IC50", "setting": "HCT-116; [6]", "value": 57.9, "unit": "µM"}, {"measurement": "IC50", "setting": "A549 [2]; [7]", "value": 23.8, "unit": "µM"}, {"measurement": "viability at 40 µM", "setting": "BGC-823 [3]", "value": 19.9, "unit": "%"}, {"measurement": "IC50", "setting": "[4]", "value": "> 100", "unit": "µM"}]}]}
